# Entries after “also recorded” stand apart in the source; their conditions may differ.
# Columns and labels:
# [1] = test system: Cy3/Cy5-labeled mononucleosomes (603 DNA, 147 bp); assay: Single-molecule FRET (spFRET) of nucleosome-peptide interactions; type: biochemical, H. sapiens; conditions: 10 μM peptide
# Description: Non-fluorescently labeled nuclesomal DNA fragments were obtained as follows. pUC57 plasmids containing eight repeats of the high-affinity 147 bp Widom 603 sequence were amplified in E. coli XL-10 stain and purified via alkaline lysis (see details in Supplementary Materials and Methods). The Widom 603 fragments were released via cleavage with EcoRV and separated from parent plasmid with polyethylene glycol precipitation in order to clear the vector backbone as described in [86]. Nucleosomal DNA fragments fluorescently labeled at the 35 and 112 bp positions were obtained following established protocols. […]
# NCPs were reconstituted by mixing 147 bp Widom 603 DNA and histone octamers at a 1:1.15 molar ratio. […] Fluorescently labeled nucleosomes were detected by in-gel FRET using a Typhoon scanner (GE Healthcare, Chicago, IL, USA) with excitation at 532 nm laser and emission at 670 nm (FRET between Cy3 and Cy5) or 580 nm (Cy3 signal) (Supplementary Figure S5).
# Single-particle FRET measurements were conducted with LSM710-Confocor3 laser scanning confocal microscope (Carl Zeiss, Jena, Germany) as described previously. […] To evaluate the level of background signal and reveal fluorescence bursts, spFRET data were analyzed using the FretBursts version 0.7.1 software. […]
# [2] = biological target: nucleosome (H. sapiens canonical histone octamer on 147 bp Widom 603 DNA) (H. sapiens) (UniProt P04908); assay: fluorescence polarisation; 100 nM FAM-LANA_(1-22) as tracer, nucleosome concentration varied by two-fold serial dilution, 30 min at +4 C; 10 mM TrisHCl pH 8.0, 200 uM EDTA, 5 mM 2-mercaptoethanol, 10 mM NaCl; simple direct binding model with identical, non-interacting sites
# [3] = test system: FAM-LANA1-22 (Kaposi's sarcoma-associated herpesvirus); assay: fluorescence polarization; conditions: FP: 10 mM Tris-HCl pH 8.0, 0.2 mM EDTA, 5 mM 2-mercaptoethanol, 10 mM NaCl, 30 min incubation at 4 C, EMSA: 6% PAGE, 10 mM HEPES-Na pH 8.0, 0.2 mM EDTA
substance,measurement,setting,value
"PNVRRSNRIRLKPLEYWRGERIDYQ [CENP-Cmotif, fragment of CENP-C protein (amino acids 710–734) from R. norvegicus]",shift of EPR value distribution,[1]; 1 nM nucleosomes,"shift of the EPR value distribution towards higher EPR values; also recorded: makes nucleosomes, on average, more compact"
same,"effect on average nucleosome compactness, compared with LANA1-22",[1]; spFRET,"higher than that of LANA1-22; also recorded: makes nucleosomes more compact than LANA1-22, on average"
FAM-labeled LANA_(1-22) peptide (from UniProt Q9QR71 1-22),Kd,[2],400 nM
Widom 603 nucleosome,Kd,[3],400 nM

# Source: article PMC10606924, “Interactions of Nucleosomes with Acidic Patch-Binding Peptides: A Combined Structural Bioinformatics, Molecular Modeling, Fluorescence Polarization, and Single-Molecule FRET Study” (International Journal of Molecular Sciences, 2023)
